# Laboratory results published in PubChem BioAssay (NCI).
# “And” between values parts separate entries of the source, which are not always exact repeats. Equal entries are not always repeated.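 Briefly, cells in 96-well plates were exposed to five compound concentrations for 48 h, and endpoints were estimated by linear interpolation. GI50 = concentration required for 50% inhibition of growth. TGI is the concentration that stops growth completely.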
# Experiments:
# Assay in all cases: inhibition of tumour cell growth, NCI panel, 48 h
# HS 578T breast = system: HS 578T breast
# U251 CNS = system: U251 CNS
# HCT-116 colon = system: HCT-116 colon
# IGROV1 ovarian = system: IGROV1 ovarian
# SF-539 CNS = system: SF-539 CNS
# CCRF-CEM leukemia = system: CCRF-CEM leukemia
# SK-OV-3 ovarian = system: SK-OV-3 ovarian
# HCT-15 colon = system: HCT-15 colon
# A549 NSCLC = system: A549 NSCLC
# HOP-62 NSCLC = system: HOP-62 NSCLC
# SW-620 colon = system: SW-620 colon
# NCI/ADR-RES ovarian = system: NCI/ADR-RES ovarian
# UO-31 renal = system: UO-31 renal
# SK-MEL-28 melanoma = system: SK-MEL-28 melanoma
# SK-MEL-2 melanoma = system: SK-MEL-2 melanoma
# TK-10 renal = system: TK-10 renal
# NCI-H23 lung = system: NCI-H23 lung
# MOLT-4 leukemia = system: MOLT-4 leukemia
# MDA-N = system: MDA-N
# MDA-MB-231 breast = system: MDA-MB-231 breast
# HT29 colon = system: HT29 colon
# OVCAR-8 ovarian = system: OVCAR-8 ovarian
# M14 melanoma = system: M14 melanoma
# UACC-257 melanoma = system: UACC-257 melanoma
# BT-549 breast = system: BT-549 breast
# 786-0 renal = system: 786-0 renal
# SR leukemia = system: SR leukemia
# RXF 393 renal = system: RXF 393 renal
# KM12 colon = system: KM12 colon
# MDA-MB-435 = system: MDA-MB-435
# NCI-H460 lung = system: NCI-H460 lung
# PC-3 prostate = system: PC-3 prostate
# SK-MEL-5 melanoma = system: SK-MEL-5 melanoma
# OVCAR-5 ovarian = system: OVCAR-5 ovarian
# HL-60(TB) leukemia = system: HL-60(TB) leukemia
# NCI-H226 lung = system: NCI-H226 lung
# MCF7 breast = system: MCF7 breast
# A498 renal = system: A498 renal
# HCC-2998 colon = system: HCC-2998 colon
# MALME-3M melanoma = system: MALME-3M melanoma
# UACC-62 melanoma = system: UACC-62 melanoma
# EKVX NSCLC = system: EKVX NSCLC
# COLO 205 colon = system: COLO 205 colon
# OVCAR-3 ovarian = system: OVCAR-3 ovarian
# OVCAR-4 ovarian = system: OVCAR-4 ovarian
# HOP-92 NSCLC = system: HOP-92 NSCLC
# K-562 leukemia = system: K-562 leukemia
# SF-295 CNS = system: SF-295 CNS
# LOX IMVI melanoma = system: LOX IMVI melanoma
# ACHN renal = system: ACHN renal
# SN12C renal = system: SN12C renal
# SNB-19 CNS = system: SNB-19 CNS
# CAKI-1 renal = system: CAKI-1 renal
# SNB-75 CNS = system: SNB-75 CNS
# RPMI-8226 leukemia = system: RPMI-8226 leukemia
# SF-268 CNS = system: SF-268 CNS
# NCI-H522 lung = system: NCI-H522 lung
# DU-145 prostate = system: DU-145 prostate
smiles,measurement,setting,value
O=C1Nc2c(Cl)cc(Cl)cc2/C1=N/N=C/c1ccccc1O,TGI,HS 578T breast,72.2 µM
same,TGI,U251 CNS,36.1 µM
same,TGI,HCT-116 colon,32.1 µM
same,TGI,IGROV1 ovarian,85.8 µM
same,TGI,SF-539 CNS,41.6 µM
same,TGI,CCRF-CEM leukemia,58.7 µM
same,TGI,SK-OV-3 ovarian,88.1 µM
same,TGI,HCT-15 colon,51 µM
same,TGI,A549 NSCLC,88.4 µM
same,TGI,HOP-62 NSCLC,41.3 µM
same,TGI,SW-620 colon,59.3 µM
same,TGI,NCI/ADR-RES ovarian,51.7 µM
same,TGI,UO-31 renal,> 100 µM
same,TGI,SK-MEL-28 melanoma,40.3 µM
same,TGI,SK-MEL-2 melanoma,39.9 µM
same,TGI,TK-10 renal,> 100 µM
same,TGI,NCI-H23 lung,40.3 µM
same,TGI,MOLT-4 leukemia,62.5 µM
same,TGI,MDA-N,35.1 µM
same,TGI,MDA-MB-231 breast,54.7 µM
same,TGI,HT29 colon,40.4 µM
same,TGI,OVCAR-8 ovarian,> 100 µM
same,TGI,M14 melanoma,49.8 µM
same,TGI,UACC-257 melanoma,66.3 µM
same,TGI,BT-549 breast,35.7 µM
same,TGI,786-0 renal,40.9 µM
same,TGI,SR leukemia,46.5 µM
same,TGI,RXF 393 renal,50.7 µM
same,TGI,KM12 colon,68.4 µM
same,TGI,MDA-MB-435,51.6 µM
same,TGI,NCI-H460 lung,34.4 µM
same,TGI,PC-3 prostate,53.5 µM
same,TGI,SK-MEL-5 melanoma,47.5 µM
same,TGI,OVCAR-5 ovarian,48.7 µM
same,TGI,HL-60(TB) leukemia,49.7 µM
same,TGI,NCI-H226 lung,74.6 µM
same,TGI,MCF7 breast,94.2 µM
same,TGI,A498 renal,36.9 µM
same,TGI,HCC-2998 colon,34.3 µM
same,TGI,MALME-3M melanoma,88.4 µM
same,TGI,UACC-62 melanoma,32.1 µM
same,TGI,EKVX NSCLC,91.5 µM
same,TGI,COLO 205 colon,31.4 µM
same,TGI,OVCAR-3 ovarian,34 µM
same,TGI,OVCAR-4 ovarian,> 100 µM
same,TGI,HOP-92 NSCLC,62.8 µM
same,TGI,K-562 leukemia,68.1 µM
same,TGI,SF-295 CNS,47.7 µM
same,TGI,LOX IMVI melanoma,31.8 µM
same,TGI,ACHN renal,> 100 µM
same,TGI,SN12C renal,34.9 µM
same,TGI,SNB-19 CNS,> 100 µM
same,TGI,CAKI-1 renal,47.4 µM
same,TGI,SNB-75 CNS,48.2 µM
CCc1c2c(nc3ccc(O)cc13)-c1cc3c(c(=O)n1C2)COC(=O)[C@]3(O)CC,GI50,HS 578T breast,4.12 µM
same,TGI,HS 578T breast,> 100 µM
same,GI50,RPMI-8226 leukemia,< 0.001 µM
same,TGI,HCT-116 colon,> 36.1 µM
same,TGI,CCRF-CEM leukemia,> 100 µM
same,GI50,SK-OV-3 ovarian,< 0.001 µM
same,TGI,SK-OV-3 ovarian,0.342 µM and 0.792 µM
same,GI50,HCT-15 colon,0.206 µM
same,TGI,HCT-15 colon,> 100 µM
same,TGI,SF-268 CNS,3.68 µM
same,GI50,A549 NSCLC,< 0.001 µM
same,TGI,A549 NSCLC,8.34 µM
same,TGI,SW-620 colon,> 100 µM
same,TGI,NCI/ADR-RES ovarian,6.45 µM
same,TGI,UO-31 renal,0.0152 µM and 0.115 µM
same,GI50,SK-MEL-28 melanoma,0.246 µM
same,TGI,SK-MEL-28 melanoma,> 19.7 µM
same,TGI,SK-MEL-2 melanoma,0.282 µM
same,GI50,TK-10 renal,0.606 µM
same,GI50,MDA-N,1.92 µM
same,TGI,MDA-N,> 100 µM
same,GI50,MDA-MB-231 breast,0.524 µM
same,TGI,MDA-MB-231 breast,> 100 µM
same,TGI,HT29 colon,0.526 µM
same,TGI,M14 melanoma,0.488 µM and 0.156 µM
same,GI50,UACC-257 melanoma,0.0838 µM
same,GI50,BT-549 breast,0.0103 µM
same,TGI,BT-549 breast,0.293 µM
same,GI50,KM12 colon,0.0784 µM
same,TGI,KM12 colon,2.64 µM
same,TGI,MDA-MB-435,0.292 µM and 1.57 µM
same,TGI,NCI-H460 lung,0.147 µM and 0.536 µM
same,GI50,PC-3 prostate,0.0857 µM
same,TGI,PC-3 prostate,> 100 µM
same,TGI,NCI-H522 lung,0.885 µM and 0.317 µM
same,GI50,OVCAR-5 ovarian,0.246 µM
same,TGI,OVCAR-5 ovarian,4.56 µM
same,TGI,NCI-H226 lung,0.0109 µM and 0.0892 µM
same,TGI,DU-145 prostate,3.1 µM
same,GI50,EKVX NSCLC,0.545 µM
same,TGI,EKVX NSCLC,> 100 µM
same,GI50,COLO 205 colon,0.0711 µM
same,TGI,COLO 205 colon,12.2 µM
same,GI50,OVCAR-3 ovarian,0.0649 µM
same,TGI,OVCAR-3 ovarian,2.55 µM and 1.67 µM
same,GI50,OVCAR-4 ovarian,0.279 µM
same,GI50,HOP-92 NSCLC,< 0.001 µM
same,TGI,K-562 leukemia,> 100 µM
same,TGI,SF-295 CNS,0.0503 µM
same,TGI,ACHN renal,0.0322 µM and 0.123 µM
same,TGI,SN12C renal,> 100 µM
same,TGI,SNB-19 CNS,> 12.7 µM
same,TGI,CAKI-1 renal,0.0286 µM and 0.0985 µM
same,TGI,SNB-75 CNS,0.351 µM
